{"source": "patent US20080187508A1", "about": "“Treatment of Golmerular Basement Membrane Disease Involving Matrix Metalloproteinase-12” (BOYS TOWN NATIONAL RESEARCH HOSPITAL, priority 2004, published 2008)", "key": {"Alport mice [1]": {"system": "Alport mice", "test": "immunofluorescence of kidney cryosections (fibronectin, collagen IV α1/α2) of treated Alport mice", "format": "in vivo, mouse", "conditions": "Alport mice treated from 4 to 7 weeks of age, MMI-270 50 μg/g I.P., BAY 129566 4 mg once daily oral gavage, fibronectin and collagen IV α1/α2 immunostaining", "procedure": "The Alport mouse model has been described (Cosgrove et al. (1996) Genes Dev. 10, 2981-2992). The control mice used were normal for both collagen α3(IV) alleles, and are a product of double heterozygote crosses for the Alport mutation. The use of animals in this study was performed in accordance with an approved institutional IACUC protocol. Extreme care was taken to minimize pain and discomfort suffered by the mice. MMP inhibitors were administered between 4 and 7 weeks of age. All drugs were freshly prepared prior to administration. BAY 129566 was emulsified in suspension with 0.5% carboxymethyl cellulose and 4 mg given once a day by oral gavage. MMI-270 was solubilized in 0.9% saline and administered by I.P. injection (50 μg/g body weight) once a day.\nCryosections ([…]) of kidneys from 7-week-old normal and Alport mice were air dried, fixed by immersion in ice cold acetone, and subjected to immunohistochemical staining analysis using antibodies specific for MMP-3 (rabbit polyclonal anti-human MMP-3, a gift from Dr. Z. Gunza-Smith, Miami, Fla., used at 1:200 dilution), MMP-12 (rabbit polyclonal antibody against mouse MMP-12, kindly provided by Yoshikatsu Kaneko, used at 1:100 dilution), type IV collagen α1/2 chains (rabbit polyclonal against mouse type IV collagen, Biodesign, Inc., Saco, Me., used at 1:200 dilution), fibronectin (rabbit polyclonal against human plasma fibronectin, Sigma Chemical Co., St. Louis, Mo., used at 1:200). Anti-CD31 antibodies were directly conjugated to Alexa 568 (Molecular Probes, Eugene Oreg.) and purchased from Immunotech (Marseille, France). […] Images were collected using a Cytovision Ultra Image analysis system interfaced with an Olympus BH-2 fluorescence microscope.\nTo assess the effect of these two compounds on Alport renal disease progression, Alport mice were administered either MMI 270 or BAY 129566 from 4 to 7 weeks of age. […] Cryosections were analyzed by immunofluorescence microscopy to assess for the degree of glomerular and tubulointerstitial damage using antibodies specific for collagen IV α1 and α2 chains, and fibronectin."}, "Alport mice [2]": {"system": "Alport mice", "test": "transmission electron microscopy of glomerular basement membrane of treated Alport mice", "format": "in vivo, mouse", "conditions": "Alport mice treated with MMP inhibitor from 4 to 7 weeks of age, electron microscopy", "procedure": "The Alport mouse model has been described (Cosgrove et al. (1996) Genes Dev. 10, 2981-2992). The control mice used were normal for both collagen α3(IV) alleles, and are a product of double heterozygote crosses for the Alport mutation. The use of animals in this study was performed in accordance with an approved institutional IACUC protocol. Extreme care was taken to minimize pain and discomfort suffered by the mice. MMP inhibitors were administered between 4 and 7 weeks of age. All drugs were freshly prepared prior to administration. BAY 129566 was emulsified in suspension with 0.5% carboxymethyl cellulose and 4 mg given once a day by oral gavage. MMI-270 was solubilized in 0.9% saline and administered by I.P. injection (50 μg/g body weight) once a day. Transmission electron microscopy was performed as previously described (Cosgrove et al., 1996, Genes Dev. 10, 2981-2992). Ultrastructural localization studies of type IV collagen were performed essentially as previously described (Bhattacharya et al., 2002). Kidneys from 7-week-old control and Alport mice were fixed by heart perfusion with 2% paraformaldehyde in PBS, and post-fixed in this same solution overnight. Ultrathin (70 nm) sections were reacted for 4 hours at room temperature with goat anti-collagen IV antibodies (Southern Biotechnology, Birmingham, Ala.). After six 10 minute washes in PBS, specimen were reacted for 2 hours at room temperature with 10 nanometers (nm) gold-conjugated anti-rabbit antibodies (Vector Laboratories, Burlingame, Calif.). Grids were washed as before, air-dried, counterstained with uranyl acetate, and examined using transmission electron microscopy. Propagermanium (3-oxygemylpropinic acid polymer, Sanwa Kagaku Kenkyusho Co., Nagoya, Japan) was administered orally (10 milligrams per kilogram (mg/kg) in 1% gelatin) by gavage once daily starting at 5 weeks of age, and kidneys harvested at 7 weeks of age. Three animals per group, Alport mice and control litter mates, gavaged with drug or vehicle only, were analyzed. […] Proteolytic degradation of the GBM in Alport syndrome might underlie the progressive irregular GBM damage and podocyte foot process effacement. Type IV collagen from Alport kidneys is more susceptible to proteolytic degradation in vitro than type IV collagen from healthy kidneys (Kalluri et al. (1997) J. Clin. Invest. 99, 2470-2478, presumably owing to the reduced number of interchain disulfide crosslinks (Gunwar et al. (1998) J. Biol. Chem. 273, 8767-8775)."}, "MMP-2": {"target": "T1, MMP-2 (Homo sapiens, UniProt P08253)", "T1 sequence (P08253 110-660)": "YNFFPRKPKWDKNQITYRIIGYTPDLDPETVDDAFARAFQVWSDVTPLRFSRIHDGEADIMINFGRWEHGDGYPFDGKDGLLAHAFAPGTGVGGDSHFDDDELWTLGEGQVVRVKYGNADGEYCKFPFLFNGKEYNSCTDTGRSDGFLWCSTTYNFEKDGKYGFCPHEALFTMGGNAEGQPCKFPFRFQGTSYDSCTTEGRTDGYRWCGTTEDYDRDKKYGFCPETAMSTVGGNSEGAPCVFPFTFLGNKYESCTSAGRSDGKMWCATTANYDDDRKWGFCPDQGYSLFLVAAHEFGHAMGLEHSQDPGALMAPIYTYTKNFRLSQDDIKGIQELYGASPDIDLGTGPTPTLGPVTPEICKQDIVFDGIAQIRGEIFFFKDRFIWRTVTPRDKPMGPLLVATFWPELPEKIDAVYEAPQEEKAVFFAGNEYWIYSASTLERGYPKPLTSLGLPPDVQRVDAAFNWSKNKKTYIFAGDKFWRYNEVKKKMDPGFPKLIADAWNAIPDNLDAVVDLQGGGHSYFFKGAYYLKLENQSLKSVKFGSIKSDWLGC", "conditions": "hydrochloride monohydrate; cited from earlier work"}, "MMP-3": {"target": "MMP-3 (Homo sapiens, UniProt P08254)", "sequence (P08254 100-477, species assumed)": "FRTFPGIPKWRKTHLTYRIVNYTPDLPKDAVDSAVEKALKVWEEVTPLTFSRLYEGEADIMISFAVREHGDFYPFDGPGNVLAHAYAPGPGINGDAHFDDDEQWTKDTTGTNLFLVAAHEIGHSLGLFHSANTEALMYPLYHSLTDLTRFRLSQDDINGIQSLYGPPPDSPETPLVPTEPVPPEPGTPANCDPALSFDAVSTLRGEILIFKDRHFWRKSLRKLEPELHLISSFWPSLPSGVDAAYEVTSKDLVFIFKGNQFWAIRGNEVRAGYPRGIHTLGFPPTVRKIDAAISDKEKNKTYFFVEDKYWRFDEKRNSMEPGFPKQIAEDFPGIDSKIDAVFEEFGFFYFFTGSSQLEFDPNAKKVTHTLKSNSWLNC", "conditions": "hydrochloride monohydrate; cited from earlier work"}, "MMP-14": {"target": "MMP-14 (Homo sapiens, UniProt P50281)", "conditions": "hydrochloride monohydrate; cited from earlier work"}, "wide range of MMPs": {"system": "wide range of MMPs", "conditions": "in vitro; cited from earlier work"}, "[3]": {"conditions": "listed as NMI 270, hydrochloride monohydrate"}}, "note": "“Also recorded” adds a separate entry of the source. Where a name gives a salt, the structure may show the parent alone."}
{"smiles": "COc1ccc(S(=O)(=O)N(Cc2cccnc2)[C@@H](C(=O)NO)C(C)C)cc1", "note": "[MMI 270, N-hydroxy-2(R)-[(4-methoxysulfonyl)(3-picolyl)amino]-3-methylbutaneamide hydrochloride monohydrate]", "values": [{"measurement": "glomerular and tubulointerstitial (renal) disease progression", "setting": "Alport mice [1]; hydrochloride monohydrate", "result": "very little glomerular or interstitial disease; also recorded: remarkable improvement"}, {"measurement": "glomerular and tubulointerstitial (renal) disease progression", "setting": "Alport mice [1]; [3]", "result": "significantly reduced interstitial disease"}, {"measurement": "glomerular basement membrane architecture", "setting": "Alport mice [2]; hydrochloride monohydrate", "result": "near complete restoration of normal glomerular basement membrane architecture; also recorded: prevents or reverses GBM damage"}, {"measurement": "glomerular basement membrane architecture", "setting": "Alport mice [2]; listed as MMI-270, hydrochloride monohydrate", "result": "largely restored GBM ultrastructure and function; also recorded: markedly improved glomerular basement membrane architecture"}, {"measurement": "glomerular basement membrane architecture", "setting": "Alport mice [2]; [3]", "result": "markedly improved GBM ultrastructure"}, {"measurement": "MMP inhibitory effect, MMP-2", "setting": "MMP-2", "result": "inhibits"}, {"measurement": "MMP inhibitory effect, MMP-3", "setting": "MMP-3", "result": "inhibits"}, {"measurement": "MMP inhibitory effect, MMP-14", "setting": "MMP-14", "result": "inhibits"}, {"measurement": "concentrations inhibiting activity of a wide range of MMPs", "setting": "wide range of MMPs", "result": "nM concentrations"}]}
